Patent publication US20100016546A1, “Therapeutic Peptide-Polysaccharide Biomaterials” (priority 2005, published 2010)
Like-named read-outs stand apart in the source and are kept apart here. No end group written: not given here.

Columns and labels:
E. coli BL21(DE3) [1] = conditions: cited from earlier work
E. coli BL21(DE3) [2] = format: cell-based; conditions: for Measured Potency: Free Peptide (LC90) / Measured Potency: Peptide/Agarose Conjugate (LC90): E. coli (BL21 (DE3)); for Measured Potency: Peptide/Agarose Conjugate (LC90): effective peptide concentration
Protocol: Overall, antimicrobial activity can be evaluated by incubating small cultures of E. coli (BL21) at 37° C. with agitation (e.g., ˜3 to ˜5 hrs) in minimal media in the presence/absence of varied amounts of peptide conjugate or free peptide. Aliquots can be collected at predetermined time points to determine the cell density. One OD600 of the solution=2×10^9 CFU/ml. Correlating changes in cell density between cultures incubated with varied amounts of conjugate and cultures grown in the absence of conjugates can provide a means of evaluating the antimicrobial potency of the varied constructs. Assays such as this one are known to be used in evaluating the potency of antimicrobial peptidomimetics and biomaterials.
In one embodiment, the antimicrobial activity of the free peptides and conjugates have been assayed against E. coli BL21(DE3) cultures. In this assay, the bacteria (at ˜1×10^6 CFU/ml) are incubated for 2 hours at 37° C. in 10 mM phosphate (e.g., Na2HPO4) buffer (pH ˜7.5) with varied concentrations of peptide or peptide-conjugate. After this time, 20 μl aliquots of each culture and serial dilutions of the culture are plated onto LB agar plates and incubated over night at 37° C. The number of colonies on these plates is then counted and the survival percentage is determined relative to a control culture. The example contained no peptide.
In another embodiment, a stock solution containing 1 mg of peptide per ml solution may be prepared. Using the stock peptide (1 mg/ml) solution, assays may be prepared (volume of ˜100 μl) at 1 μg/ml, 10 μg/ml, and 100 μg/ml of free peptide (e.g., HBD-332-45). In the control sample, 10 μl of 100 mM phosphate buffer, 80 μl of sterile water and 10 μl of cell cultures may be combined and incubated without peptide for two hours at 37° C. After two hours incubation, 20 μl aliquots of the above solutions, and 1:10, and 1:100 dilutions of each may be plated in LB-agar plates and incubated over night at 37° C.
In another embodiment, peptide conjugate (e.g., HBD-332-45-agarose) with a loading of 3.82 μg of peptide/1 μl of resin may also be assayed at effective peptide concentrations of 1 μg/ml, 10 μg/ml, 25 μg/ml, 50 μg/ml, 75 μg/ml and 100 μg/ml. For example, an effective peptide concentration of 100 μg/ml of suspension may be prepared by using 52.2 μl of a 50% suspension of 3.82 μg/μl of peptide suspension (100 μg×[1 μl/3.82 μg]=26.1 μl). Samples containing varying concentrations of peptide conjugate may be combined with 10 μl of 100 mM phosphate buffer having a pH of about 7.5, 10 μl of cell cultures (˜1×10^7 CFU/ml), and the required volume of sterile water to bring a total volume of 100 μl. This combination may be incubated at 37° C. with agitation for two hours. After incubation, 20 μl of each cell culture and 1:10 and 1:100 dilutions of each cell culture may be plated on LB-agar plates and incubated at 37° C. overnight. Similar protocols may be used to evaluate the antimicrobial activity of the HBD-336-45 peptide and corresponding conjugate. […]
The results of the antimicrobial assay using free HBD-332-45 and agarose conjugate can be seen in FIG. 17. Antimicrobial activity of free HBD-332-45 is given on the left and that of the HBD-332-45 peptide-conjugate is shown on the right. E. coli at 1×10^6 CFU/ml were incubated with varied peptide concentrations (free peptide and peptide conjugate). Serial dilutions (0.1× and 0.01×) of cell cultures in all plates are shown across the figure.

E. coli = conditions: free peptide; cited from earlier work

Substance	Reported Potency: Free Peptide (LC90) (E. coli BL21(DE3) [1]) [µg/mL]	reduction in the number of colonies (E. coli BL21(DE3) [2]; free peptide, 1 μg/ml) [%]	reduction in the number of colonies (E. coli BL21(DE3) [2]; free peptide, 10 μg/ml) [%]	Measured Potency: Free Peptide (LC90) (E. coli BL21(DE3) [2]; free peptide) [µg/mL]	Measured Potency: Peptide/Agarose Conjugate (LC90) (E. coli BL21(DE3) [2])	Measured Potency: Peptide/Agarose Conjugate (LC50) (E. coli BL21(DE3) [2]; Escherichia coli, 2 h, pH 7.5)	bacteria killed (E. coli BL21(DE3) [2]; free peptide, 1 μg/ml, E. coli 1×10^6 CFU/ml, 2 h) [%]	microbicidal efficiency (E. coli BL21(DE3) [2]; free peptide, 10 μg/ml) [%]	microbicidal efficiency (E. coli BL21(DE3) [2]; free peptide, 100 μg/ml) [%]	antimicrobial activity against E. coli (E. coli) [mg/mL]
RGRKSSRRKK-OH [HBD-336-45, RGRKSSRRKK]	~4	~67	~97	2.23	>100 μg/m μg/ml					
KSSTRGRKSSRRKK-OH [HBD-332-45, KSSTRGRKSSRRKK]	~1			0.20	~75 µg/mL	~10 μg/ml (LC50)	~93	> 99	> 99	1 ± 0.1
RGRRSSRRKK-NH2 [HBD-336-45(Rev2), RGRRSSRRKK-NH2]				0.15	~26 µg/mL					
